How the values were obtained:
Format in all cases: biochemical
[1] = target: Human NOS-2 (Homo sapiens, UniProt P35228); assay: Human NOS-2 assay ([3H]-arginine to [3H]-citrulline conversion); settings: 60 min at 37° C., 2.5 μM L-[3H]arginine; * mean of 3, ** mean of 2 determinations; read-out: Human iNOS, IC50
Description: (§1) Experimental conditions (protein concentration, incubation time) required for measuring NOS activity (37° C.) in screening assays are controlled for each batch of enzyme prepared or commercially obtained. NOS enzymatic assays are based on the conversion of [^3H]-arginine into [^3H]-citrulline originally described by Bredt and Snyder (1990, Proc. Natl. Acad. Sci. USA 87, 682-685).
(§2) The incubations are terminated by using the Beckman Multimek to transfer 60 ul of the assay solution into Millipore MAHV N45 plates, packed with 80 ul/well 500 mg of AG® 50W-X8 (counterion Na^+) cation exchange resin and pre-washed with 100 ul of HEPES buffer (100 mM, pH 5.5) containing 10 mM EGTA. After filtering under vacuum into opaque scintillation plates, approximately 220 ul of Packard Microscint-40 is added to each well using a Titertek multidrop. The plates are counted on a Packard TopCount to quantify L-[^3H]citrulline by liquid scintillation counting.
Human iNOS is used as 1:30 diluted preparation, is usually incubated for 60 min at 37° C. in the presence of 2.5 μM L-[^3H]arginine (0.06 uCi tracer/well).
(§3) For all NOS assays in vitro, the inhibitory activities of screened compounds (usually tested at 10^−9-10^−4 M) are represented by their IC50 values determined by non-linear regression analysis with Activity Base Software (Data management system from IDBS Ltd).

[2] = target: T1, Murine NOS-2 (iNOS) (Mus musculus, UniProt P29477); assay: Murine NOS-2 (iNOS) assay ([3H]-arginine to [3H]-citrulline conversion); settings: recombinant murine NOS-2, 20 min at 37° C., 10 uM L-[3H]arginine; ** mean of 2 determinations
T1 construct: purchased Cayman Chemical 60864; host or cells: E. coli
Description: A recombinant murine NOS-2 (inducible) preparation is purchased from Cayman Chemical (Catalog N^o 60864). This preparation corresponds to murine NOS-2 expressed in E. Coli, and represents a 100,000×supernatant. To avoid thawing/freezing cycles, this enzymatic preparation is divided into small fractions (25-100 μl) stored at −80° C. until use.
as §1
(§4) 0.06 μCi/well L-[^3H]arginine (Amersham; ˜55.0 Ci/mmol, 1 mCi/ml) is used.
as §2
The recovery of L-[^3H]citrulline can be estimated by using L-[ureido-^14C]-citrulline (NEN; 58.8 mCi/mmol) as an external standard (4.05 nCi/0.09 ml).
as §3

[3] = target: T2, Bovine NOS-3 (eNOS) (Bos taurus, UniProt P29473); assay: Bovine NOS-3 (eNOS) assay ([3H]-arginine to [3H]-citrulline conversion); settings: recombinant bovine NOS-3, 120 min, 10 μM L-[3H]arginine; ** mean of 2 determinations
T2 construct: purchased Cayman Chemical 60880; host or cells: Baculovirus / Sf9 cells
Description: Experimental conditions (protein concentration, incubation time) required for measuring NOS activity (37° C.) in screening assays are controlled for each batch of enzyme prepared or commercially obtained.
(§5) 0.012 Units recombinant rat nNOS is incubated in Costar polystyrene 96-well microplates 20 min at 37° C. with 2 μM L-[^3H]arginine, 1 mM NADPH, 15 μM 6R-tetrahydrobiopterin, 1 μM FAD, and 10 μg/ml calmodulin prepared in HEPES buffer (50 mM, pH 7.4) containing 0.1 mM DL-dithiothreitol, 1 mM EDTA and 1.25 mM CaCl2 (final volume: 90 μl).
as §4, §2
(§6) The recovery of L-[^3H]citrulline can be estimated by using L-[ureido-^14C]-citrulline (NEN; 58.8 mCi/mmol) as an external standard (4.05 nCi/0.09 ml). Specific NOS I-like activity corresponds to the L-NNA-sensitive formation of L-citrulline per minute and milligram of protein (pmol/min/unit of protein).
Aliquots of commercial enzyme fraction (quantity used variable from one batch to another, but normally 0.012 Units/90 ul reaction volume) are usually incubated for 120 min in the presence of 10 μM L-[^3H]arginine (0.15 uCi/well).
as §3

[4] = target: T3, Rat NOS-1 (nNOS) (Rattus norvegicus, UniProt P29476); assay: Rat NOS-1 (nNOS) assay ([3H]-arginine to [3H]-citrulline conversion); settings: recombinant rat nNOS, 20 min at 37° C., 2 μM L-[3H]arginine; * mean of 3 determinations
T3 construct: purchased Cayman Chemical 60870; host or cells: Baculovirus / Sf9 cells
T3 sequence (P29476 whole entry): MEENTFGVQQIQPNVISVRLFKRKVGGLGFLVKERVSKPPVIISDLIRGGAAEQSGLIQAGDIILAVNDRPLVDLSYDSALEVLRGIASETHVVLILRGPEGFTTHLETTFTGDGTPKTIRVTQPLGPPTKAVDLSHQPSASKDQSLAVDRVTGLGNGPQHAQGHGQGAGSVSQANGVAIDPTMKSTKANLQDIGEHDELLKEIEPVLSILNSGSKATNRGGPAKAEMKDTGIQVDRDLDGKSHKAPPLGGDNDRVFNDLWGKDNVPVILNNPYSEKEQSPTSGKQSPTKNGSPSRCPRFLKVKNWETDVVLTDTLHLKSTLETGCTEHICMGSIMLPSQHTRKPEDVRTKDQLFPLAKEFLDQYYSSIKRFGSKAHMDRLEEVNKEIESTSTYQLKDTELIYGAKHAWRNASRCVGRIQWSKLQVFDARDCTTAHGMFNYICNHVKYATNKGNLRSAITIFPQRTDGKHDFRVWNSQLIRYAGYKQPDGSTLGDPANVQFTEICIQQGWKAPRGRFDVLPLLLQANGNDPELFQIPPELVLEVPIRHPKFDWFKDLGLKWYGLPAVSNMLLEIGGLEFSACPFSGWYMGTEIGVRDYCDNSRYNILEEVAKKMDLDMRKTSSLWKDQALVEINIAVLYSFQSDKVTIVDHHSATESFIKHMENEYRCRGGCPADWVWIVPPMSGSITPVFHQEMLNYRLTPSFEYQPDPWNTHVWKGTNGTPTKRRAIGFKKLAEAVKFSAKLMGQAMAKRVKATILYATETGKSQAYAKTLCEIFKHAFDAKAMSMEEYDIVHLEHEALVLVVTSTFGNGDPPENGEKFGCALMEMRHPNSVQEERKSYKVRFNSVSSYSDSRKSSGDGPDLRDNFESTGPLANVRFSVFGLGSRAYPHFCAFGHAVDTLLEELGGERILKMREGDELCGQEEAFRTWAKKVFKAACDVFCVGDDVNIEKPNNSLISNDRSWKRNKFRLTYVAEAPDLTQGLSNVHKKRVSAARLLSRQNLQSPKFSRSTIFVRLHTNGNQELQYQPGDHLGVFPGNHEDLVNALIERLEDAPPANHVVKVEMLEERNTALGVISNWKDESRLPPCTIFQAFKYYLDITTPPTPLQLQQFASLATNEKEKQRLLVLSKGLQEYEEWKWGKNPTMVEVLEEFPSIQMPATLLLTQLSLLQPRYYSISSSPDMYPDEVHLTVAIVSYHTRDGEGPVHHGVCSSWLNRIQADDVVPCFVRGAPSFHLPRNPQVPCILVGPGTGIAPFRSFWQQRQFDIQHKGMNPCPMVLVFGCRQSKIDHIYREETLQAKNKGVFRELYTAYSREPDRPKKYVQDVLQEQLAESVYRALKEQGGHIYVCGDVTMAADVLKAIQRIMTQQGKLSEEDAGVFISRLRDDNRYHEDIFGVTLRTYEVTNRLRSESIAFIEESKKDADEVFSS
Description: To avoid thawing/freezing cycles, this enzymatic preparation is divided into small fractions (25-100 μl) stored at −80° C. until use.
as §1, §5, §4, §2, §6, §3

T2 sequence (P29473 2-1205): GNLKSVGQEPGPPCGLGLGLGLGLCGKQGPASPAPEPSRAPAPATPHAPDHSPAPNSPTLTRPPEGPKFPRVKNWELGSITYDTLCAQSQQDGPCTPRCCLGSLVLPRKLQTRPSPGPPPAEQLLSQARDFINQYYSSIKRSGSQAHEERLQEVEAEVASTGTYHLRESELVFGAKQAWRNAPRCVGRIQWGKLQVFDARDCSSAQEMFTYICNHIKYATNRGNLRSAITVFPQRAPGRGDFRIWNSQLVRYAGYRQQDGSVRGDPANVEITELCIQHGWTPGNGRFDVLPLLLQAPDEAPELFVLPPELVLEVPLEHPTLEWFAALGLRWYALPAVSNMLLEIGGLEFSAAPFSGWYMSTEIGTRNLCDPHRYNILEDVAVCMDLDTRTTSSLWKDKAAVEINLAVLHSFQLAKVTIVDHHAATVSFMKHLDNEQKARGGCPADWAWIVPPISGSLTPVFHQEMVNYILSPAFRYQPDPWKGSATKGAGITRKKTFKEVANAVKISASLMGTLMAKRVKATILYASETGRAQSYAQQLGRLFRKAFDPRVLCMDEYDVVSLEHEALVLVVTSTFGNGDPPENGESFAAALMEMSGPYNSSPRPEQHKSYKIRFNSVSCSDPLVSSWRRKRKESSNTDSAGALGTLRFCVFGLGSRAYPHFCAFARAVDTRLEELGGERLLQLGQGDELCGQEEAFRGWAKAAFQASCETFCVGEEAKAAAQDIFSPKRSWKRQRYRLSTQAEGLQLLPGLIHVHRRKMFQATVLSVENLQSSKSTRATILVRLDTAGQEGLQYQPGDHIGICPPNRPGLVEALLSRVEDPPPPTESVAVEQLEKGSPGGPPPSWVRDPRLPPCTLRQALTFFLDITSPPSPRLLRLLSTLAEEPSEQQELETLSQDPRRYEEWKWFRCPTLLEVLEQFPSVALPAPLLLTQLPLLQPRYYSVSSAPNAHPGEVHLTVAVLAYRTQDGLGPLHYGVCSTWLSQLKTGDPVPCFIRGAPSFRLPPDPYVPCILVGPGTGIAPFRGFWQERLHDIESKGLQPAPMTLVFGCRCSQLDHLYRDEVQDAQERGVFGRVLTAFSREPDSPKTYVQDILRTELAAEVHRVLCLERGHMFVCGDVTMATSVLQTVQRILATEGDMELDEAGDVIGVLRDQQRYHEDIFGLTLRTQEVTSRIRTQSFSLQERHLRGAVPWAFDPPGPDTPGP
Human NOS-2, sequence (P35228 whole entry): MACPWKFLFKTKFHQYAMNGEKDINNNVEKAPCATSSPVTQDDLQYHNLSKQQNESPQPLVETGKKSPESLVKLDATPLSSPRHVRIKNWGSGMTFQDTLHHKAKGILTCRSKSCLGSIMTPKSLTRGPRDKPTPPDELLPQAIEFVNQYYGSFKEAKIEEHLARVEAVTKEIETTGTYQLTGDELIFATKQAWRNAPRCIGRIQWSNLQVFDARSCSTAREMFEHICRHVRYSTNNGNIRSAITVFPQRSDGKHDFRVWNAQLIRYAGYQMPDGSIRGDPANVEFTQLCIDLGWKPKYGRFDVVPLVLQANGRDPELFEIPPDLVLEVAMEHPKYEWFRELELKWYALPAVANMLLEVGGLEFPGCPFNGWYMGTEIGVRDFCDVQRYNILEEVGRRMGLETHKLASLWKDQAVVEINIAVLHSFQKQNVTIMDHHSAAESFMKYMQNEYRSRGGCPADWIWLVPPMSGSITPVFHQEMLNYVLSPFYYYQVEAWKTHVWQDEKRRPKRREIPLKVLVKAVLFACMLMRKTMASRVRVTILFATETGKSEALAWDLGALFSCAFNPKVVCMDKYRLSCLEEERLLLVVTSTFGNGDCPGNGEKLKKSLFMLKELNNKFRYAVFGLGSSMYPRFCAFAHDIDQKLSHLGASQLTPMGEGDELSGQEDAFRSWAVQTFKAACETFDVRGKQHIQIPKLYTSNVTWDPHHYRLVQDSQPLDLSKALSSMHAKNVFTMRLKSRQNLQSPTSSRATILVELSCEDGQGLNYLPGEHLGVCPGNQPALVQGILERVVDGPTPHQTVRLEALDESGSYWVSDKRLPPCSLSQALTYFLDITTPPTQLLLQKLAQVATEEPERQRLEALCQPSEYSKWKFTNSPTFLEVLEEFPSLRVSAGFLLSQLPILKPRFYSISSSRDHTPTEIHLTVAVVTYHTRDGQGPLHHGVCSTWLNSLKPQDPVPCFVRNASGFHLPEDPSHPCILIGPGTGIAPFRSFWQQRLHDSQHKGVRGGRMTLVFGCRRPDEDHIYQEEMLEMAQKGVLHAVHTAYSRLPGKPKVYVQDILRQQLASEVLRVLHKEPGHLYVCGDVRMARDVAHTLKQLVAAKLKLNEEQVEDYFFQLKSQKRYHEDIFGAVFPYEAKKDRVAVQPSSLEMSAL
T1 sequence (P29477 whole entry): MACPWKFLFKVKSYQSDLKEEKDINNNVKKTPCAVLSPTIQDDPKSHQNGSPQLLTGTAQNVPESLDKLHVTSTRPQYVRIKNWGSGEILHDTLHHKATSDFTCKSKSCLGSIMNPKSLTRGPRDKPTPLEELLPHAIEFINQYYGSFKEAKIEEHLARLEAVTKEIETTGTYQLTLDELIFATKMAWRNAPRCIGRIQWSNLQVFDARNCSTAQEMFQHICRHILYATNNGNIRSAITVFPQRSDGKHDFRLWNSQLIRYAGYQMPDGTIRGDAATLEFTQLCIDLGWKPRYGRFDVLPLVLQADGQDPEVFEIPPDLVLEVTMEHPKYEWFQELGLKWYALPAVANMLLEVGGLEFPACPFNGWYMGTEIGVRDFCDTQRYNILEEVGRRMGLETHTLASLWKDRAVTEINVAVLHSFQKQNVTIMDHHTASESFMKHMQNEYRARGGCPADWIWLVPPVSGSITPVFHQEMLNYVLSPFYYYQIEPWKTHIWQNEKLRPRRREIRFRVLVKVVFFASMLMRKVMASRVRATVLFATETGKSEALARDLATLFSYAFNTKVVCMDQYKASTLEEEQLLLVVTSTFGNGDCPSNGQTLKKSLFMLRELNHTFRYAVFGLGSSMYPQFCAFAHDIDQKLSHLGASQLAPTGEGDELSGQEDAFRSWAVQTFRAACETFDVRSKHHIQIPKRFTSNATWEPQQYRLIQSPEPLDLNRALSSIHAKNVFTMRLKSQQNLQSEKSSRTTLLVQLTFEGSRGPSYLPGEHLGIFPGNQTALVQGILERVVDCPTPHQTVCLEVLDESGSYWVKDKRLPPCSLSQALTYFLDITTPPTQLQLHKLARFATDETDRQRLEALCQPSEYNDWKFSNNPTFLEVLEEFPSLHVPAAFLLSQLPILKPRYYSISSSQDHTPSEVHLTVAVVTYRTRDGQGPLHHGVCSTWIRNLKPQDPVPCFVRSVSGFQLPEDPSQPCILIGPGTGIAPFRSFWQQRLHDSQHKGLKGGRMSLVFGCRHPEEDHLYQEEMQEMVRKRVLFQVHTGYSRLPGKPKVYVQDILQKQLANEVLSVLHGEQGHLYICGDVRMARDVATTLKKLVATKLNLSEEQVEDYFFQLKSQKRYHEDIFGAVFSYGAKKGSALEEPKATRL

Structure (SMILES) | IC50 [1] | IC50 [2] | IC50 [3] | IC50 [4]
NCCCOc1cc(=O)oc2ccc(Cl)cc12 [Example 1, 6-Chloro-4-(3-aminopropoxy)-1-benzopyran-2-one] | 94 nM | 60 nM | > 10000 nM | 560 nM
CN(C)CCCOc1cc(=O)oc2ccccc12 [Example 2, 4-(3-Dimethylamino-propoxy)-1-benzopyran-2-one] | 4000 nM | > 10000 nM | > 10000 nM | > 10000 nM
CNCCCOc1cc(=O)oc2ccc(Cl)cc12 [Example 3, 6-Chloro-4-(3-methylamino-propoxy)-1-benzopyran-2-one] | 110 nM | 250 nM | > 10000 nM | 530 nM
NCCCOc1cc(=O)oc2ccc(Br)cc12 [Example 11, 4-(3-Amino-propoxy)-6-bromo-1-benzopyran-2-one] | 100 nM | 140 nM | > 10000 nM | 360 nM
NCCCOc1cc(=O)oc2ccc(F)cc12 [Example 12, 4-(3-Amino-propoxy)-6-fluoro-1-benzopyran-2-one] | 1100 nM | 440 nM | > 10000 nM | 1600 nM
Cc1ccc2oc(=O)cc(OCCCN)c2c1 [Example 14, 4-(3-Amino-propoxy)-6-methyl-1-benzopyran-2-one] | 300 nM | 300 nM | > 10000 nM | 650 nM
NCCCOc1cc(=O)oc2ccccc12 [Example 19, 4-(3-Amino-propoxy)-1-benzopyran-2-one] | 7600 nM | 7400 nM | > 10000 nM | 9100 nM
CN(C)CCCOc1cc(=O)oc2ccc(Cl)cc12 [Example 22, 6-Chloro-4-(3-dimethylamino-propoxy)-1-benzopyran-2-one] | 4100 nM | 1200 nM | > 10000 nM | 8000 nM
Cc1ccc2oc(=O)cc(OCCCN(C)C)c2c1 [Example 23, 4-(3-Dimethylamino-propoxy)-6-methyl-1-benzopyran-2-one] | 4700 nM | 3000 nM | > 10000 nM | > 10000 nM
N=C(N)NCCCOc1cc(=O)oc2ccc(Cl)cc12 [Example 28, N-[3-(6-Chloro-2-oxo-2H-1-benzopyran-4-yloxy)-propyl]guanidine] | 510 nM | 390 nM | > 10000 nM | 500 nM
NCCCCOc1cc(=O)oc2ccc(Cl)cc12 [Example 31, 4-(4-Amino-butoxy)-6-chloro-1-benzopyran-2-one] | 2000 nM | 1000 nM | > 10000 nM | > 10000 nM
NCCCCCOc1cc(=O)oc2ccc(Cl)cc12 [Example 32, 4-(5-Amino-pentyloxy)-6-chloro-1-benzopyran-2-one] | 1300 nM |  |  | 
O=c1cc(OCC2CCCNC2)c2cc(Cl)ccc2o1 (stereo not drawn) [Example 33, 6-Chloro-4-(piperidin-3-ylmethoxy)-1-benzopyran-2-one] |  | 1500 nM |  | 
O=c1cc(OCCC2CCCCN2)c2cc(Cl)ccc2o1 (stereo not drawn) [Example 34, 6-Chloro-4-(2-piperidin-2-yl-ethoxy)-1-benzopyran-2-one] | 2000 nM | 4200 nM | > 10000 nM | 1000 nM
NCCCCc1cc(=O)oc2ccc(Cl)cc12 [Example 57, 4-(4-Aminobutyl)6-chloro-1-benzopyran-2-one] | 3600 nM |  |  | 

From patent US7538233B2, “Coumarins as iNOS inhibitors” (Aventis Pharmaceuticals Inc., priority 2003, dated 2009)
